According to US10023518B2, “Substituted aromatic compounds and related method for the treatment of fibrosis” (PROMETIC BIOSCIENCES INC., priority 2013, dated 2018):

Tests used:
[1] = test system: α-SMA mRNA expression in TGF-β induced NRK-49F cells; experiment: Inhibition of α-SMA mRNA expression in TGF-β induced NRK-49F cells (quantitative real-time PCR); type: cell-based, rat; conditions: TGF-β 10 ng/ml
Procedure: In fibroblast, analysis was undertaken to determine the effect of preferred compounds of the present invention on TGF-β-induced α-SMA (marker of fibrosis) mRNA expression on normal rat kidney fibroblast (NRK-49F). NRK-49F were treated with TGF-β at a concentration of 10 ng/ml and became activated (myofibroblast) and expressed α-SMA. Expression of the profibrotic marker α-SMA was determined by quantitative real-time PCR.

[2] = test system: db/db diabetic mouse; experiment: Glomerular filtration rate in nephrectomised db/db diabetic mouse model of renal fibrosis; type: in vivo; conditions: db/db mice, right nephrectomy day 0, GFR on day 119
Procedure: FIG. 1 illustrates the glomerular filtration rate (GFR) function in db/db diabetic mouse compared to C57BL/6 mice (control mice), and in db/db diabetic mouse following oral treatment with Compound 1 at a dose of 10 and 50 mg/kg.
Typical experimental models of kidney fibrosis in mice or rats include db/db nephritic mice (models for diabetic nephropathy) and reflects the nephropathy observed in human. Evaluation of the effect of Compound 1 on diabetic nephropathy was performed in a db/db mouse model. Briefly, total nephrectomy of the right kidney was performed on day 0 and db/db mice (6-week old) were treated with vehicle or Compound 1 (10 and 50 mg/kg, oral once a day) from day 1 and glomerular filtration rate (GFR) was measured on day 119 as a direct measure of kidney function. FIG. 1 illustrates the reduction of GFR in db/db diabetic mouse compared to C57BL/6 mice (control mice), showing clearly the nephropathy associated with diabetes.

[3] = test system: collagen 1 mRNA expression in TGF-β induced HK-2 cells; experiment: Inhibition of collagen 1 mRNA expression in TGF-β induced HK-2 epithelial cells (quantitative real-time PCR); type: cell-based, human; conditions: TGF-β 10 ng/mL; for expression of collagen in TGF-β-induced HK-2 cells (in words): concentration not given
Procedure: In epithelial cells, analysis was undertaken to determine the effect of compounds of the invention on TGF-β-induced collagen 1 (marker of fibrosis) on human proximal tubule epithelial cells (HK-2). HK-2 cells are immortalized proximal tubule epithelial cells, from human kidney, which were treated with TGF-β at a concentration of 10 ng/mL Expression of the profibrotic marker collagen 1 was determined by quantitative real-time PCR.

CCCCCc1cc(CC(=O)[O-])cc(CCCCC)c1O.[Na+] [Compound 5, Sodium Salt of 2-(4-Hydroxy-3,5-dipentylphenyl)acetic acid]
α-SMA expression in NRK-49F % of inhibition [mM] ([1]; 0.025 mM compound): 41% [0.025]

CCCCCc1cc(CCCCC)c(O)c(CC(=O)[O-])c1.[Na+] [Compound 3, Sodium Salt of 2-(2-Hydroxy-3,5-dipentylphenyl)acetic acid]
α-SMA expression in NRK-49F % of inhibition [mM] ([1]; 0.0125 mM compound): 100% [0.0125]

CCCCCc1cc(CCCCC)cc(CC(=O)[O-])c1.[Na+] [Compound 1, Sodium 2-[3,5-Dipentylphenyl]acetate]
melting point: 225 to 230 °C
α-SMA expression in NRK-49F % of inhibition [mM] ([1]; 0.01 mM compound): 94% [0.01]
glomerular filtration rate (GFR) ([2]; 10 mg/kg oral once a day from day 1): increases the GFR function of the kidney up to normal
glomerular filtration rate (GFR) ([2]; 50 mg/kg oral once a day from day 1): increases the GFR function of the kidney up to normal
Collagen expression in HK-2 cells % of inhibition [mM] ([3]; 0.02 mM compound): 100% [0.02]
expression of collagen in TGF-β-induced HK-2 cells (in words) [3]: inhibits the expression of collagen

CCCCCCc1cc(CCCCCC)cc(CC(=O)[O-])c1.[Na+] [Compound 2, Sodium Salt of 2-(3,5-Dihexylphenyl)acetic acid]
α-SMA expression in NRK-49F % of inhibition [mM] ([1]; 0.006 mM compound): 89% [0.006]
Collagen expression in HK-2 cells % of inhibition [mM] ([3]; 0.008 mM compound): 100% [0.008]
expression of collagen in TGF-β-induced HK-2 cells (in words) [3]: inhibits the expression of collagen
